Reference: patent publication US4861760A, “Ophthalmological composition of the type which undergoes liquid-gel phase transition” (Merck & Co., Inc., priority 1985, dated 1989)

Key:
[1] = compatibility / gelling effect of ingredients in Gelrite solution; format: physicochemical; details: 0.1 mg/ml added; can be eliminated by adding a small amount of acetic acid
eye = details: rabbit, in vivo

benzalkonium chloride
gelling effect in a Gelrite solution [1]: slight gelling effect

gellan gum
eye irritation (eye): not regarded as an eye irritant
